Test results from ChEMBL document CHEMBL6178003, “Reducing Cardiovascular Side Effects of DMT Using Beta-Blockers” (ACS Med Chem Lett, 2025).

Experiments:
[1] = Half-life in human; type: ADME
[2] = Half-life in iv dosed human; type: ADME, organism-based; details: in vivo

| Compound | half-life [1] [min] | half-life [2] [min] |
| --- | --- | --- |
| CCCC(=O)OCOC(=O)C1=C(C)NC(C)=C(C(=O)OC)C1c1cccc(Cl)c1Cl (centres undefined) [CLEVIDIPINE] | ~1 | – |
| COC(=O)CCc1ccc(OCC(O)CNC(C)C)cc1 (centres undefined) [ESMOLOL] | – | ~9 |
| CC1(C)OC[C@@H](COC(=O)CCc2ccc(OC[C@@H](O)CNCCNC(=O)N3CCOCC3)cc2)O1 [LANDIOLOL] | ~4 | – |
| CN(C)CCc1c[nH]c2ccccc12 [N,N-DIMETHYLTRYPTAMINE] | ~10 | – |
